According to PubChem BioAssay (NCI):
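Step 1: Grow cells in 96-well plates. Step 2: Expose to compound for 48 hours at 5 concentrations. Step 3: Interpolate endpoints linearly; if unreached, use highest concentration. Definition used: TGI = concentration required for complete inhibition of growth.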

Experiments:
Experiment in all cases: NCI-60 cell line screen, 48 h
ACHN renal = test system: ACHN renal
CAKI-1 renal = test system: CAKI-1 renal
DU-145 prostate = test system: DU-145 prostate
HS 578T breast = test system: HS 578T breast
HT29 colon = test system: HT29 colon
M14 melanoma = test system: M14 melanoma
MCF7 breast = test system: MCF7 breast
NCI-H23 lung = test system: NCI-H23 lung
NCI-H522 lung = test system: NCI-H522 lung
NCI/ADR-RES ovarian = test system: NCI/ADR-RES ovarian
OVCAR-5 ovarian = test system: OVCAR-5 ovarian
RXF 393 renal = test system: RXF 393 renal
SK-MEL-5 melanoma = test system: SK-MEL-5 melanoma
SR leukemia = test system: SR leukemia
T-47D breast = test system: T-47D breast
TK-10 renal = test system: TK-10 renal
SK-MEL-2 melanoma = test system: SK-MEL-2 melanoma
SK-OV-3 ovarian = test system: SK-OV-3 ovarian
COLO 205 colon = test system: COLO 205 colon

Structure (SMILES) | TGI (ACHN renal) [µM] | TGI (CAKI-1 renal) [µM] | TGI (DU-145 prostate) [µM] | TGI (HS 578T breast) [µM] | TGI (HT29 colon) [µM] | TGI (M14 melanoma) [µM] | TGI (MCF7 breast) [µM] | TGI (NCI-H23 lung) [µM] | TGI (NCI-H522 lung) [µM] | TGI (NCI/ADR-RES ovarian) [µM] | TGI (OVCAR-5 ovarian) [µM] | TGI (RXF 393 renal) [µM] | TGI (SK-MEL-5 melanoma) [µM] | TGI (SR leukemia) [µM] | TGI (T-47D breast) [µM] | TGI (TK-10 renal) [µM] | TGI (SK-MEL-2 melanoma) [µM] | TGI (SK-OV-3 ovarian) [µM] | TGI (COLO 205 colon) [µM]
CS(=O)(=O)CCC1CCC(=O)O1 (configuration not stated) | 90.4 | > 100 | > 100 | > 100 | > 100 | > 100 | > 100 | > 100 | > 100 | > 100 | > 100 | > 100 | > 100 | > 100 | > 100 | > 100 | – | – | –
C#CCN(C(=O)C(F)(F)F)C(/C=C\C(=O)OC)(C(=O)OCC)C(=O)OCC | > 100 | – | > 100 | > 100 | > 100 | > 100 | > 100 | > 100 | > 100 | > 100 | > 100 | > 100 | > 100 | – | > 100 | > 100 | > 100 | > 100 | –
COC(=O)/C(=N\N)C(C(=O)C(=O)Nc1cc(Cl)ccc1Cl)c1nc2ccc([N+](=O)[O-])cc2[nH]c1=O (configuration not stated) | > 100 | > 100 | – | > 100 | > 100 | > 100 | > 100 | > 100 | > 100 | > 100 | > 100 | > 100 | > 100 | – | > 100 | > 100 | > 100 | > 100 | –
COc1cc(Nc2cc(Cl)cc(Cl)c2)nc(N)n1 | 37.4 | 42.8 | 48.6 | 57 | 33.2 | 42.1 | 91.4 | 49.2 | 35.9 | 45.4 | > 100 | 28.4 | 29.7 | – | 92.5 | 53.9 | 32.1 | 64.5 | 44.2
COc1ccc(OC/C(N)=N/NC(=O)c2ccncc2)cc1 | > 100 | > 100 | > 100 | > 100 | > 100 | > 100 | > 100 | > 100 | > 100 | > 100 | > 100 | > 100 | – | – | > 100 | > 100 | > 100 | > 100 | > 100
S=c1[nH]nc(Cn2c3ccc(Br)cc3c3nc4ccccc4nc32)o1 | > 100 | > 100 | > 100 | – | > 100 | > 100 | > 100 | > 100 | 69.6 | > 100 | > 100 | > 60 | > 100 | > 100 | > 100 | > 100 | > 88.6 | > 100 | > 100
CN(CC(=O)Nc1ccccc1C(=O)O)c1ccccc1 | > 100 | > 100 | > 100 | > 100 | > 100 | > 100 | > 100 | > 100 | > 100 | – | > 100 | > 100 | > 100 | > 100 | > 100 | > 100 | – | – | –
COC(=O)/C=C1\C(CO[Si](C)(C)C(C)(C)C)OC(n2ccc(=O)[nH]c2=O)C1O (configuration not stated) | > 65.5 | > 100 | 32.7 | – | 80.5 | 49.2 | 31.4 | 55.3 | – | 38.4 | 50.9 | 32.5 | 21.7 | 26.4 | > 22.3 | > 100 | 21.1 | – | 10.3
O=C1/C(=C/c2ccc(Br)s2)NC(=S)N1CN1CCCCC1 | > 100 | 59.2 | > 100 | > 100 | > 100 | – | 57.8 | > 100 | 83.1 | 98.2 | > 100 | 60.7 | 23.8 | 47.1 | > 100 | > 100 | 37.1 | – | 37.2
C=CCN(c1cc(O)c2c(c(C)cn2S(=O)(=O)c2ccccc2)c1[N+](=O)[O-])S(C)(=O)=O | > 100 | > 100 | > 100 | > 100 | > 100 | > 100 | > 100 | > 100 | > 100 | > 100 | > 100 | > 100 | > 100 | – | > 100 | > 100 | > 100 | > 100 | > 100
